The NIST ThermoML archive (doi:10.1016/j.fluid.2010.01.026)
Numbers after ± are expanded uncertainties.

Conditions: 293.15 K; 101.33 kPa; Liquid; Vibrating tube method

- mass density: 1234.55 ± 8.3 kg/m3
Compound: CCCCCCCC[n+]1ccn(C)c1.F[P-](F)(F)(F)(F)F [1-octyl-3-methylimidazolium hexafluorophosphate]
